Source: ChEMBL document CHEMBL2177022, “Novel acidic 11β-hydroxysteroid dehydrogenase type 1 (11β-HSD1) inhibitor with reduced acyl glucuronide liability: the discovery of 4-[4-(2-adamantylcarbamoyl)-5-tert-butyl-pyrazol-1-yl]benzoic acid (AZD8329)” (J Med Chem, 2012)
Activity calls are given as the source filed them. The rule behind the calls is not given here.

What was measured:
[1] = system: Rattus norvegicus; assay: Inhibition of 11betaHSD1 in lean Han Wistar rat adipose tissue assessed as reduction in assessed as [3H]cortisone to [3H]cortisol conversion at 10 mg/kg, po measured 3 hrs post dose; format: functional, organism-based; design: dose 10 mg/kg
[2] = system: Rattus norvegicus; assay: Inhibition of 11betaHSD1 in lean Han Wistar rat liver assessed as reduction in assessed as [3H]cortisone to [3H]cortisol conversion at 3 mg/kg, po measured 3 hrs post dose; format: functional
[3] = target: T1, 11-beta-hydroxysteroid dehydrogenase 1 (Homo sapiens, UniProt P28845); assay: Inhibition of 11betaHSD1 in human adipocytes assessed as cortisone to cortisol conversion by scintillation counting method; format: cell-based
T1 sequence (P28845 whole entry): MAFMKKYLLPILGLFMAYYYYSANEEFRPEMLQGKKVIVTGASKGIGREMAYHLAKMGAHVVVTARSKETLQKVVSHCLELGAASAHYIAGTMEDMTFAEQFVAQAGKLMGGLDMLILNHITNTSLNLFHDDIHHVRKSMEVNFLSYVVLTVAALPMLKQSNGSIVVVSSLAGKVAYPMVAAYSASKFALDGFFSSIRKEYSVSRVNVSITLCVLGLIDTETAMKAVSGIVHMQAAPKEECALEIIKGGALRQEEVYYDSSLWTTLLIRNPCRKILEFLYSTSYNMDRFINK

[4] = Inhibition of N-terminal 6-His tagged full length cynomolgus monkey 11betaHSD1 incubated for 25 mins by HTRF assay; design: species or system Macaca fascicularis
[5] = Inhibition of N-terminal 6-His tagged full length dog 11betaHSD1 incubated for 25 mins by HTRF assay; design: species or system Canis lupus familiaris
[6] = target: 11-beta-hydroxysteroid dehydrogenase 1 (Rattus norvegicus, UniProt P16232); assay: Inhibition of N-terminal 6-His tagged full length rat 11betaHSD1 incubated for 25 mins by HTRF assay
Sequence of 11-beta-hydroxysteroid dehydrogenase 1 (Rattus norvegicus, UniProt P16232) (P16232 whole entry): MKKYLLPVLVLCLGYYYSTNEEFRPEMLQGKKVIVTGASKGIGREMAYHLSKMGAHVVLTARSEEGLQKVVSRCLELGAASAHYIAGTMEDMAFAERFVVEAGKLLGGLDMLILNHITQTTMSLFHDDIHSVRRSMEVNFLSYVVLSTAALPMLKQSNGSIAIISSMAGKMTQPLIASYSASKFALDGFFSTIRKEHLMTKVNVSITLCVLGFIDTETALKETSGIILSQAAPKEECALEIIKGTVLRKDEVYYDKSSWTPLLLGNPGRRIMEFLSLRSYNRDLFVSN

[7] = target: 11-beta-hydroxysteroid dehydrogenase 1 (Mus musculus, UniProt P50172); assay: Inhibition of N-terminal 6-His tagged full length mouse 11betaHSD1 incubated for 25 mins by HTRF assay
Sequence of 11-beta-hydroxysteroid dehydrogenase 1 (Mus musculus, UniProt P50172) (P50172 whole entry): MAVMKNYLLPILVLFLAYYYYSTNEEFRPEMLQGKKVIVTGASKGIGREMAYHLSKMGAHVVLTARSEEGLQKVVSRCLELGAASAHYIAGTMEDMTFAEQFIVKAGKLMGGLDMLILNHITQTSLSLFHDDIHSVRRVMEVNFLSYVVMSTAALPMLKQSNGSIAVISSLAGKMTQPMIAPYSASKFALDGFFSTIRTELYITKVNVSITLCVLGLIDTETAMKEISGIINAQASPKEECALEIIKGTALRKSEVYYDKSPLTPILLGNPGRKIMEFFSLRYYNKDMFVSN

[8] = system: Cavia porcellus; assay: Toxicity in anesthetized guinea pig monophasic action potential model assessed as ventricular repolarization; format: organism-based, Cardiac ventricle; settings: in vivo
[9] = system: L5178Y; assay: Genotoxicity in mouse L5178Y cells; format: toxicity, cell-based
[10] = target: Mineralocorticoid receptor (Homo sapiens) (UniProt P08235); assay: Inhibition of mineralocorticoid receptor
Sequence of Mineralocorticoid receptor (Homo sapiens) (P08235 whole entry): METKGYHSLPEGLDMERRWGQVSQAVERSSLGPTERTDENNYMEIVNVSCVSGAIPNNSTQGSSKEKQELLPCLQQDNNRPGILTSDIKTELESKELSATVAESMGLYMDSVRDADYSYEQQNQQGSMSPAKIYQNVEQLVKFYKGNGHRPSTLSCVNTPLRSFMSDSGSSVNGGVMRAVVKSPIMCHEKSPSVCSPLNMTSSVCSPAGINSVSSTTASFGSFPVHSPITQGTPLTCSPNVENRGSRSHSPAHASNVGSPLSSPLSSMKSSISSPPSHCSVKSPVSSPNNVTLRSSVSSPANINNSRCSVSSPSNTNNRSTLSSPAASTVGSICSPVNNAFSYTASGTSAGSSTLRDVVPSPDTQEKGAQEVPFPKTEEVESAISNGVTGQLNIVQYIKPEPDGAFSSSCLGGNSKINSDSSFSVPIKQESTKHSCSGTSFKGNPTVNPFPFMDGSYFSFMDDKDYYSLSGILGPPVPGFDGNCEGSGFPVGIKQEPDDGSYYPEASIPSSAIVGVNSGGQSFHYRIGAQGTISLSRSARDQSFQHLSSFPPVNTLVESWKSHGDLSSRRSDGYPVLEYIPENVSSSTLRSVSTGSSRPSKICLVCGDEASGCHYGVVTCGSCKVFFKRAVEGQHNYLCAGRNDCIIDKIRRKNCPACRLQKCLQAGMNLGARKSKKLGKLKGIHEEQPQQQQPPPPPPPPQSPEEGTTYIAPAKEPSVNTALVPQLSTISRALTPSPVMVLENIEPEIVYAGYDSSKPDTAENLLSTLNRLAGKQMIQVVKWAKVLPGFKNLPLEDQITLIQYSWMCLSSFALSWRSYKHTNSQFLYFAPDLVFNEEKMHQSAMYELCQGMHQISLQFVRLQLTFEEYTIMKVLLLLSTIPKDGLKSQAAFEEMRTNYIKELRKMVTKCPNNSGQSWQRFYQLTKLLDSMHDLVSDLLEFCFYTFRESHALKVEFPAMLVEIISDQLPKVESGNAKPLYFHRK

[11] = system: Salmonella typhimurium; assay: Genotoxicity in Salmonella typhimurium by Ames test; format: toxicity, organism-based; settings: salmonella enterica subsp. enterica serovar typhimurium
[12] = target: Glucocorticoid receptor (Homo sapiens) (UniProt P04150); assay: Inhibition of glucocorticoid receptor
Sequence of Glucocorticoid receptor (Homo sapiens) (P04150 whole entry): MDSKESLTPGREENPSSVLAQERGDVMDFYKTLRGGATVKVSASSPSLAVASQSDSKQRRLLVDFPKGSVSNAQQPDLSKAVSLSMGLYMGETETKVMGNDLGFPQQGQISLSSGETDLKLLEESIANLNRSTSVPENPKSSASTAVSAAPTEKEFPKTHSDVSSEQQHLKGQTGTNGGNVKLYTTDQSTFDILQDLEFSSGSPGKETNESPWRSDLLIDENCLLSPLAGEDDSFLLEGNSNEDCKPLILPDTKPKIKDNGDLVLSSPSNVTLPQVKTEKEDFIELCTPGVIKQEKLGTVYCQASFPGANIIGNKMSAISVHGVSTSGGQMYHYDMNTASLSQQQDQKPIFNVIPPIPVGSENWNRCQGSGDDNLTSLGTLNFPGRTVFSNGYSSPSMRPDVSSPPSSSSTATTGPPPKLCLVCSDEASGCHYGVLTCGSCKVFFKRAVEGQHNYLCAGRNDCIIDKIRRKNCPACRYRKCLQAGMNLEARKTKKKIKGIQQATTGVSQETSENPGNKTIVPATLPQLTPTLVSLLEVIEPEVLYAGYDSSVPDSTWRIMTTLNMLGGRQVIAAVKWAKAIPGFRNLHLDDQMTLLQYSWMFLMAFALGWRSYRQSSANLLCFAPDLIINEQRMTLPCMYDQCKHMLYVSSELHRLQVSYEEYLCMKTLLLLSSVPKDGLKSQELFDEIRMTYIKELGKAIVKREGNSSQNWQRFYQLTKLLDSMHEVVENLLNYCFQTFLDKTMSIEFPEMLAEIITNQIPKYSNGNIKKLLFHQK

[13] = target: 17-beta-hydroxysteroid dehydrogenase type 3 (Homo sapiens) (UniProt P37058); assay: Inhibition of 17beta-HSD3 assessed as conversion of androstenedione to testosterone at 10 uM by scintillation counting method
Sequence of 17-beta-hydroxysteroid dehydrogenase type 3 (Homo sapiens) (P37058 whole entry): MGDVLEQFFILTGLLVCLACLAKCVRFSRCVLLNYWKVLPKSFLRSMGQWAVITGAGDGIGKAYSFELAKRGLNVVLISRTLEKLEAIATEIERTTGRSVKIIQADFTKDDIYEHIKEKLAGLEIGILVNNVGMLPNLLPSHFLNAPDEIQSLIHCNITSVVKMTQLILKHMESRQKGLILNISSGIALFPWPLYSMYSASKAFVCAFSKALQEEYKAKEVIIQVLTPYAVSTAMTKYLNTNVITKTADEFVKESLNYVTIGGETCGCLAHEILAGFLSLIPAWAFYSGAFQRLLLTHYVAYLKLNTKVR

[14] = target: 17-beta-hydroxysteroid dehydrogenase type 1 (Homo sapiens, UniProt P14061); assay: Inhibition of 17beta-HSD1 assessed as conversion of estrone to estradiol by scintillation counting method
Sequence of 17-beta-hydroxysteroid dehydrogenase type 1 (P14061 whole entry): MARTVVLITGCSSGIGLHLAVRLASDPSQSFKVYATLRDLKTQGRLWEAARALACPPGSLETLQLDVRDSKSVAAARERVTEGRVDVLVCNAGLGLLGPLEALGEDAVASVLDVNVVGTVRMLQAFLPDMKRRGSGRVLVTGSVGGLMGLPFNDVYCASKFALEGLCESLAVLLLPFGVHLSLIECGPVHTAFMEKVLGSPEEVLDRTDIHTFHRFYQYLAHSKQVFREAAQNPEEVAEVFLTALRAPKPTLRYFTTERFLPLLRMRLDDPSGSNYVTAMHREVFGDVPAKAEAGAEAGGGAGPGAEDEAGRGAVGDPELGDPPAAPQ

[15] = target: 11-beta-hydroxysteroid dehydrogenase type 2 (Homo sapiens, UniProt P80365); assay: Inhibition of 11beta-HSD2 assessed as conversion of cortisol to cortisone by fluorescence based assay
[16] = Drug metabolism in bile duct cannulated rat urine assessed as oxidative metabolism level during 0 to 6 hrs post dose by metabolism-ID study; format: ADME, tissue-based; settings: in vivo
[17] = Drug metabolism in bile duct cannulated rat bile assessed as oxidative metabolism level during 0 to 6 hrs post dose by metabolism-ID study; format: ADME; settings: in vivo
[18] = Stability in bile duct cannulated rat urine assessed as parent compound remaining measured during 0 to 6 hrs post dose; format: ADME, tissue-based; settings: in vivo
[19] = Stability in bile duct cannulated rat bile assessed as parent compound remaining measured during 0 to 6 hrs post dose; format: ADME; settings: in vivo
[20] = Drug metabolism in dog hepatocytes assessed as oxidative metabolism level by metabolism-ID study; format: ADME, cell-based, Canis lupus familiaris, Hepatocyte
[21] = system: Hepatocyte; assay: Stability in rat hepatocytes assessed as parent compound remaining; format: ADME, cell-based
[22] = Stability in dog hepatocytes assessed as parent compound remaining; format: ADME, cell-based, Canis lupus familiaris, Hepatocyte
[23] = system: Hepatocyte; assay: Stability in human hepatocytes assessed as parent compound remaining; format: ADME, cell-based
[24] = system: Liver microsomes; assay: Stability in human liver microsomes assessed as oxidative metabolism-mediated generation of reactive metabolites; format: ADME, Microsome
[25] = system: Rattus norvegicus; assay: Renal clearance in rat at 1 and 3 mg/kg relative to total clearance; format: ADME, organism-based, Kidney; design: dose 3 mg/kg; settings: in vivo
[26] = system: Canis familiaris; assay: Renal clearance in dog at 1 and 3 mg/kg relative to total clearance; format: ADME, organism-based, Canis lupus familiaris, Kidney; design: dose 3 mg/kg; settings: in vivo
[27] = Oral bioavailability in rat at 1 and 3 mg/kg; format: ADME, organism-based; settings: in vivo
[28] = Oral bioavailability in dog at 1 and 3 mg/kg; format: ADME, organism-based, Canis lupus familiaris; settings: in vivo
[29] = Oral bioavailability in mouse at 1 and 3 mg/kg; format: ADME, organism-based; settings: in vivo
[30] = Half life in mouse at 1 and 3 mg/kg, po; format: ADME, organism-based; design: dose 3 mg/kg, route oral; settings: in vivo
[31] = Half life in rat at 1 and 3 mg/kg, po; format: ADME, organism-based; design: dose 3 mg/kg, route oral; settings: in vivo
[32] = Half life in dog at 1 and 3 mg/kg, po; format: ADME, organism-based, Canis lupus familiaris; design: dose 3 mg/kg, route oral; settings: in vivo
[33] = Half life in rat at 1 and 3 mg/kg, iv; format: ADME, organism-based; design: dose 3 mg/kg, route intravenous; settings: in vivo
[34] = Half life in dog at 1 and 3 mg/kg, iv; format: ADME, organism-based, Canis lupus familiaris; design: dose 3 mg/kg, route intravenous; settings: in vivo
[35] = Volume of distribution at steady state in dog at 1 and 3 mg/kg; format: ADME, organism-based, Canis lupus familiaris; design: dose 3 mg/kg; settings: in vivo, read-out: Vdss
[36] = Half life in mouse at 1 and 3 mg/kg, iv; format: ADME, organism-based; design: dose 3 mg/kg, route intravenous; settings: in vivo
[37] = Volume of distribution at steady state in rat at 1 and 3 mg/kg; format: ADME, organism-based; design: dose 3 mg/kg; settings: in vivo, read-out: Vdss
[38] = Volume of distribution at steady state in mouse at 1 and 3 mg/kg; format: ADME, organism-based; design: dose 3 mg/kg; settings: in vivo, read-out: Vdss
[39] = Plasma clearance in dog at 1 and 3 mg/kg; format: ADME, organism-based, Canis lupus familiaris; design: dose 3 mg/kg
[40] = Plasma clearance in mouse at 1 and 3 mg/kg; format: ADME, organism-based; design: dose 3 mg/kg
[41] = Plasma clearance in rat at 1 and 3 mg/kg; format: ADME, organism-based; design: dose 3 mg/kg
[42] = Apparent permeability from basolateral to apical side in MDCK cells at 10 uM; format: ADME, cell-based, Canis lupus familiaris; settings: dog
[43] = Percentage unbound in human plasma at 37 degC by equilibrium dialysis method; format: ADME, cell-free
[44] = Apparent permeability from apical to basolateral side in MDCK cells at 10 uM; format: ADME, cell-based, Canis lupus familiaris; settings: dog
[45] = Percentage unbound in mouse plasma at 37 degC by equilibrium dialysis method; format: ADME, cell-free
[46] = Percentage unbound in dog plasma at 37 degC by equilibrium dialysis method; format: ADME, cell-free, Canis lupus familiaris
[47] = target: CYP2C9 (Homo sapiens, UniProt P11712); assay: Inhibition of CYP2C9 at 10 uM; format: ADME
Sequence of CYP2C9 (P11712 whole entry): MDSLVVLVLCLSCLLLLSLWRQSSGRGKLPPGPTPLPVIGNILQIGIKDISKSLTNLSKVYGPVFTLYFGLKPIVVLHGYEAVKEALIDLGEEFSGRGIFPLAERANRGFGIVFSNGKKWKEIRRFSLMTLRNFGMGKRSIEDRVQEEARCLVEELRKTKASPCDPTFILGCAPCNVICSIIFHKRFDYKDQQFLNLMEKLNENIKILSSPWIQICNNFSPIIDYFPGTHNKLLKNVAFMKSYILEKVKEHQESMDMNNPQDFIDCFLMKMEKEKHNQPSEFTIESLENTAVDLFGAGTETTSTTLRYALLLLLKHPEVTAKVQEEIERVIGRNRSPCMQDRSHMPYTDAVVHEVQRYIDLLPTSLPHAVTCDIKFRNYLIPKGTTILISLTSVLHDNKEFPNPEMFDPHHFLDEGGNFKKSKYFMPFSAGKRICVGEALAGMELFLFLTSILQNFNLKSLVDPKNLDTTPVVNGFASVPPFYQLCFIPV

[48] = target: CYP2C19 (Homo sapiens, UniProt P33261); assay: Inhibition of CYP2C19 at 10 uM; format: ADME
[49] = target: CYP2D6 (Homo sapiens, UniProt P10635); assay: Inhibition of CYP2D6 at 10 uM; format: ADME
Sequence of CYP2D6 (P10635 whole entry): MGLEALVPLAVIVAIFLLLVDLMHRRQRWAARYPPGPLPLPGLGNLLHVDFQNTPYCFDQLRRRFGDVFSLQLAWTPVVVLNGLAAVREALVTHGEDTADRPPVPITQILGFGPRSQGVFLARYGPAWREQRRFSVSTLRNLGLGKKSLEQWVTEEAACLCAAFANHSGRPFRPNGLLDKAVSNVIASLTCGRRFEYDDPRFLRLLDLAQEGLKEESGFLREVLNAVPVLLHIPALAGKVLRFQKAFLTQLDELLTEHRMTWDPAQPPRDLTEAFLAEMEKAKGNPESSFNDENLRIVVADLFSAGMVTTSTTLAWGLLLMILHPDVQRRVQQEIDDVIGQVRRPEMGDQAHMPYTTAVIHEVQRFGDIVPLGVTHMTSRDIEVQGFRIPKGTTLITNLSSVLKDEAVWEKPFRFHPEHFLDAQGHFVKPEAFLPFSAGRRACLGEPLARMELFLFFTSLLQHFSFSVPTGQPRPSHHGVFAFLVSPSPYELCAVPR

[50] = target: CYP1A2 (Homo sapiens, UniProt P05177); assay: Inhibition of CYP1A2 at 10 uM; format: ADME
Sequence of CYP1A2 (P05177 whole entry): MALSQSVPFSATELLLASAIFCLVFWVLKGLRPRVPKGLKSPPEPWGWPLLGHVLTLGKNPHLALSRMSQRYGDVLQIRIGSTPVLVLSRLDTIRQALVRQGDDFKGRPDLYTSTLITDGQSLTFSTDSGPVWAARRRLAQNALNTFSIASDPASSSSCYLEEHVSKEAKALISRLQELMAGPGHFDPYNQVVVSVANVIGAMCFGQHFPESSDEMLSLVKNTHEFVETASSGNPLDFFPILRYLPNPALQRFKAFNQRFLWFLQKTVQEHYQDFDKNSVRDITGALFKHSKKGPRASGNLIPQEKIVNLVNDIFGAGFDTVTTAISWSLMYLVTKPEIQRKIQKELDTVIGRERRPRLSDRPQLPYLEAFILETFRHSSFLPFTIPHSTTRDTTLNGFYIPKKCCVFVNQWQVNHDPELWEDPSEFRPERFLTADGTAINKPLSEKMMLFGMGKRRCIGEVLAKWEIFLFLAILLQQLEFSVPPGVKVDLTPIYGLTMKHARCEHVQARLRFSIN

[51] = Oral bioavailability in rat; format: ADME, organism-based; settings: in vivo
[52] = target: CYP3A4 (Homo sapiens, UniProt P08684); assay: Inhibition of CYP3A4 at 10 uM; format: ADME
[53] = Aqueous solubility in pH 7.4 phosphate buffer at 25 degC incubated for 24 hrs; format: physicochemical
[54] = Intrinsic clearance in rat hepatocytes assessed per 10^6 cells
[55] = Percentage unbound in rat plasma at 37 degC by equilibrium dialysis method; format: ADME, cell-free
[56] = Lipophilicity, log D at pH 7.4 by shake flask method; settings: buffer
[57] = target: T1, 11-beta-hydroxysteroid dehydrogenase 1
Description: Inhibition of N-terminal 6-His tagged full length human 11betaHSD1 incubated for 25 mins by HTRF assay

[58] = in vivo; settings: rat

IC50 [3]: 2 nM
IC50 [4]: 24 nM
IC50 [5]: 8 nM
IC50 [6]: 86 nM
IC50 [7]: 6100 nM
inhibition [10]: inactive
inhibition [12]: inactive
inhibition [13]: < 5%
IC50 [14]: > 30000 nM
IC50 [15]: > 30000 nM
Drug metabolism [16]: 0.2%
Drug metabolism [17]: 80.1%
Stability [18]: 99.4%
Stability [19]: 10.8%
Drug metabolism [20]: 5.8%
Stability [21]: 96%
Stability [22]: 93.7%
Stability [23]: 95%
Stability [24]: Stable
CL [25]: < 1%
CL [26]: < 5%
bioavailability [27]: 95%
bioavailability [28]: 45%
bioavailability [29]: 100%
half-life [30]: 2.2 h
half-life [31]: 4.9 h
half-life [32]: 5.1 h
half-life [33]: 5.8 h
half-life [34]: 5.5 h
Vd [35]: 0.1 L/kg
half-life [36]: 0.8 h
Vd [37]: 0.3 L/kg
Vd [38]: 0.4 L/kg
clearance [39]: 0.3 mL/min/kg
clearance [40]: 9 mL/min/kg
clearance [41]: 0.6 mL/min/kg
Papp B→A at 10 µM [42]: 3.9 ×10⁻⁶ cm/s
fraction unbound [43]: 0.014
Papp A→B at 10 µM [44]: 7.3 ×10⁻⁶ cm/s
fraction unbound [45]: 0.035
fraction unbound [46]: 0.02
inhibition at 10 µM [47]: < 25%
inhibition at 10 µM [48]: < 25%
inhibition at 10 µM [49]: < 25%
inhibition at 10 µM [50]: < 25%
bioavailability [51]: 95%
inhibition at 10 µM [52]: < 25%
solubility at 24 h [53]: > 1900 µM
hepatocyte CLint [54]: < 2 µL/min/1e6 cells
fraction unbound [55]: 0.013
logD [56]: 1
IC50 [57]: 9 nM
clearance [58]: 0.6 mL/min/kg
SMILES: CC(C)(C)c1c(C(=O)NC2C3CC4CC(C3)CC2C4)cnn1-c1ccc(C(=O)O)cc1 (stereo not drawn)
inhibition [1]: Active
inhibition in vivo at 3 mg/kg [2]: 50%
Activity [8]: Non-toxic
Activity [9]: Non-toxic
Activity [11]: Non-toxic
